Data: patent US7199219B1, “Polypeptides derived from vitamin D nuclear receptor, and their uses in particular for screening vitamin D analogues” (Centre National de la Recherche Scientifique, priority 1999, dated 2007)

Experiments:
VDR = biological target: T1, VDR (Bos taurus, UniProt Q28037); conditions: versus 1,25(OH)2 D3; cited from earlier work
T1 sequence (Q28037 1-426): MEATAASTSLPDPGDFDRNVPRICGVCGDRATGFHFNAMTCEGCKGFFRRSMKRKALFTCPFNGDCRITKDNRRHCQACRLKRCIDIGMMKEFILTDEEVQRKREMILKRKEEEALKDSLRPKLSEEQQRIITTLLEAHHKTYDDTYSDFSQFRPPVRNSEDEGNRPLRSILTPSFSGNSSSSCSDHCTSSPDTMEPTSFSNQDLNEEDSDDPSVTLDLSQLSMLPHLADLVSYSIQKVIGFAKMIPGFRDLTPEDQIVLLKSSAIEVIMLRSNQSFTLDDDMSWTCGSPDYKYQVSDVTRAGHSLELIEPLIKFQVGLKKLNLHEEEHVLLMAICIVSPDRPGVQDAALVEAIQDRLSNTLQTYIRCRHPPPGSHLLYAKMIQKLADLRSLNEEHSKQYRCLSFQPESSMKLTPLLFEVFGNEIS

[1] = test system: 17 m5-TATA-CAT reporter gene responding to GAL4; assay: GAL4-LBD chimera transactivation, CAT reporter in transfected Cos cells; format: cell-based; conditions: Gal4 (1–147) fusion, Cos cells, 1,25(OH)2 D3 10^−7M
Text: b) CAT activities of the wild-type hVDR and of the mutant hVDR; these activities are indicated on the ordinate as a percentage; column 1 corresponds to the CAT activity measured in the absence of vitamin D (VD), of wild-type (wild-type) hVDR and of mutant (truncated) hVDR; column 2 corresponds to CAT activity measured in the presence of VD and in the absence of wild-type hVDR and of mutant hVDR; column 3 corresponds to CAT activity measured in the presence of wild-type hVDR and in the absence of VD and of mutant hVDR; column 4 corresponds to CAT activity measured in the presence of VD and of wild-type hVDR and in the absence of mutant hVDR; column 5 corresponds to CAT activity measured in the presence of mutant hVDR, and in the absence of VD and of wild-type hVDR; column 6 corresponds to CAT activity measured in the presence of mutant hVDR and of VD and in the absence of wild-type hVDR.
No significant change was observed between the dissociation constants of the wild-type and mutant VDRs was observed, the values being similar to that described previously for the whole receptor (Bouillon et al., 1995). […] The chimeric proteins were expressed by transfection into Cos cells, and the transactivation was measured with an appropriate reporter responding to GAL4.

## C=C1C(=CC=C2CCCC3(C)C2CCC3C(C)CCCC(C)(C)O)CC(O)C(C)C1O (stereo not drawn) [2 α-methyl 1,25(OH)2 D3]
VDR
  binding affinity relative to the natural ligand: 4 times

B1: mutant VDR: polypeptide derived from human VDR in which residues 1–117 and 165–215 are suppressed (protein)
chain: DSLRPKLSEEQQRIIAILLDAHHKTYDPTYSDFCQFRPPVRVNDGGGSVTLELSQLSMLPHLADLVSYSIQKVIGFAKMIPGFRDLTSEDQIVLLKSSAIEVIMLRSNESFTMDDMSWTCGNQDYKYRVSDVTKAGHSLELIEPLIKFQVGLKKLNLHEEEHVLLMAICIVSPDRPGVQDAALIEAIQDRLSNTLQTYIRCRHPPPGSHLLYAKMIQKLADLRSLNEEHSKQYRCLSFQPECSMKLTPLVLEVFGNEIS
modifications: Description of the artificial sequence polypeptide derived from the nuclear receptor of the human vitamin D
notes: polypeptide derived from human VDR in which residues 1–117 and 165–215 are suppressed
[1]
  transactivation properties (CAT activity) compared with wild-type LBD: comparable transactivation properties
